Data: the NIST ThermoML archive (doi:10.1016/j.fluid.2017.05.008)
Numbers after ± are expanded uncertainties. Blank lines part the entries; values can stand above or below the compound they belong to.

Assay: an = ratio of the nth substance listed
Conditions: 298.15 K; for surface tension liquid-gas: Ring tensiometer; for viscosity: 101 kPa, Liquid, Concentric cylinders viscometry

surface tension liquid-gas (a2 = 2): 56.5 ± 0.6 mN/m
viscosity (a2 = 2): 40 ± 2 mPa·s
Structure (SMILES): C[N+](C)(C)CCO.[Cl-] [choline chloride] + OCCO

surface tension liquid-gas (a1 = 2): 71.6 ± 1.2 mN/m
viscosity (a1 = 2): 849 ± 150 mPa·s
Structure (SMILES): NC(N)=O [urea] + C[N+](C)(C)CCO.[Cl-]

surface tension liquid-gas (a2 = 2): 68.7 ± 1.1 mN/m
viscosity (a2 = 2): 296 ± 32 mPa·s
Structure (SMILES): C[N+](C)(C)CCO.[Cl-] [choline chloride] + OCC(O)CO

Structure (SMILES): OCCCCO [1,4-butanediol] + C[N+](C)(C)CCO.[Cl-]
surface tension liquid-gas (a1 = 3): 55.8 ± 0.9 mN/m
viscosity (a1 = 3): 94 ± 6 mPa·s

surface tension liquid-gas (a1 = 1): 60.8 ± 1 mN/m
viscosity (a1 = 1): 767 ± 140 mPa·s
Structure (SMILES): O.O.O=C(O)C(=O)O [ethanedioic acid dihydrate] + C[N+](C)(C)CCO.[Cl-]

surface tension liquid-gas (a1 = 3.5): 47.5 ± 0.8 mN/m
viscosity (a1 = 3.5): 110 ± 7 mPa·s
Structure (SMILES): OCCCCCO [1,5-pentanediol] + C[N+](C)(C)CCO.[Cl-]
